The text below walks through data of US9120749B2, “Quinoline derivatives and MELK inhibitors containing the same” (ONCOTHERAPY SCIENCE, INC., priority 2010, dated 2015).

The test system of one test is T47D cells. In words: Cell-based assay: anti-proliferative activity, Cell Counting Kit-8, 72 hours (T47D). As to conditions: Homo sapiens, T47D, 72 h. The gist of the method: (§1)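 Cellular growth is read by CCK-8 colorimetric kit 72 h after inhibitor addition to seeded cells, and IC50 values are derived from the resulting data; MELK protein levels in these lines are checked beforehand by immunoblotting whole crude lysate.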

The subject of the next test is A549 cells. In words: Cell-based assay: anti-proliferative activity, Cell Counting Kit-8, 72 hours (A549). As to conditions: Homo sapiens, A549, 72 h. The gist of the method:
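Cell Counting Kit-8 read-out of A549 growth after 72 hours of inhibitor exposure, cells plated in 96-well format. Values reported as IC50.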

For another test, the system named is DU4475. In words: Cell-based assay: anti-proliferative activity, Cell Counting Kit-8, 72 hours (DU4475). As to conditions: Homo sapiens, DU-4475, DU4475 cells.
The next test concerns HT-1197 cells. Description: Cell-based assay: anti-proliferative activity, Cell Counting Kit-8, 72 hours (HT-1197, negative control without MELK expression). To be noted: Homo sapiens, HT1197, 72 h. The gist of the method:
as §1

Another test has as its target MELK (Homo sapiens, UniProt Q14680). In words: Kinase assay: MELK activity, phosphorylation of FITC-labeled histone H3 peptide measured by IMAP fluorescence polarization. To be noted: 50 micro-M ATP, FITC-labeled histone H3 peptide substrate, IMAP fluorescence polarization; read-out: IC50 (μM) (kinase assay). The test is classed as biochemical. The essentials: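 FP readout: FITC-histone H3 peptide phosphorylation, read 0.5 h (RT) after stopping with 3x volume of IMAP progressive binding solution. Final DMSO 1%.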

The test system of the next test is BT-549 cells. In words: Cell-based assay: anti-proliferative activity, Cell Counting Kit-8, 72 hours (BT-549). To be noted: Homo sapiens, BT-549, 72 h, BT549 cells, MELK-expressing; Cell Counting Kit-8 at 72 hours. The gist of the method:
as §1

The mark [1] stands for this setting: HT1197 cells (negative control, no MELK expression), 72 hours.
[2] abbreviates: MELK-expressing, Cell Counting Kit-8 at 72 hours.
Setting [3] is: HT1197 cells, no MELK expression (negative control), Cell Counting Kit-8 at 72 hours.

MELK, sequence (Q14680 whole entry, looked up): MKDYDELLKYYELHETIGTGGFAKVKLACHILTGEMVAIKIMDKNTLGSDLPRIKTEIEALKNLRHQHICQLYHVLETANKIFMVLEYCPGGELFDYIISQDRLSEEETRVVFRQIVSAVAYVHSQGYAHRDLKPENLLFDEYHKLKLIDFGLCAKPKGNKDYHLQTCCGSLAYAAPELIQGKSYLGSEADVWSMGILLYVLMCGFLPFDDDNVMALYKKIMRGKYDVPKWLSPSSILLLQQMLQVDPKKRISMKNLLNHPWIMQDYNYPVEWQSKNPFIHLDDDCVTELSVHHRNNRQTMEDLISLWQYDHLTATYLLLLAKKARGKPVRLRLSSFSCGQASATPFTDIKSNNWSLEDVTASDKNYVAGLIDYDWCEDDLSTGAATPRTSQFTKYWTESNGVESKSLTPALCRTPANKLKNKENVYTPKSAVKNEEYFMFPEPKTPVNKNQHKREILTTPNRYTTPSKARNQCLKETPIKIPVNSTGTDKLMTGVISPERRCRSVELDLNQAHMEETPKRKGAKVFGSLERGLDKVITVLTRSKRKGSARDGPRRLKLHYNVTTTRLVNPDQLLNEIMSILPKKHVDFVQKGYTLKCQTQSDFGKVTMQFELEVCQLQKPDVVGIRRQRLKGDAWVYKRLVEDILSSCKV

Regarding `N#Cc1ncc(-c2ccc3ncc(C(=O)C4CC4)c(Nc4ccc(CN)cc4)c3c2)cn1` [Example 509, 5-(4-(4-(aminomethyl)phenylamino)-3-(cyclopropanecarbonyl)quinolin-6-yl)pyrimidine-2-carbonitrile], the half-inhibitory concentration (IC50) in the test on T47D cells turned out to be 0.19 µM; in the test with A549 cells (72 hours), 0.79 µM; in the test on DU4475, 0.6 µM; in the test on HT-1197 cells (setting [1]), 0.95 µM.

`CN1CCN(Cc2ccc(-c3c(C(=O)C4CC4)cnc4ccc(-c5cc(Cl)c(O)c(Cl)c5)cc34)cc2)CC1` [Example 482, cyclopropyl(6-(3,5-dichloro-4-hydroxyphenyl)-4-(4-((4-methylpiperazin-1-yl)methyl)phenyl)quinolin-3-yl)methanone]: the IC50 with T47D cells came to 0.54 µM; with A549 cells (72 hours), 0.96 µM; in the test with DU4475, 0.9 µM; in the test on HT-1197 cells (setting [1]), 3.1 µM.

On to `COc1cc(-c2ccc3ncc(C(=O)C4CC4)c(NC45CC6CC(CC(N)(C6)C4)C5)c3c2)cc(Cl)c1O` [Example 309, {6-(3-Chloro-4-hydroxy-5-methoxyphenyl)-4-[(3-amino)adamantylamino]quinolin-3-yl}(cyclopropyl)methanone], for which the IC50 in the test on T47D cells (setting [2]) is 0.32 µM; in the test with A549 cells (setting [2]) it was 0.28 µM; on MELK, 0.0087 µM; in the test on HT-1197 cells (setting [3]) it was 0.5 µM; with BT-549 cells it was 0.49 µM.

Regarding `CN1CCN(C2CCN(c3c(C(=O)C4CC4)cnc4ccc(-c5cc(F)c(O)c(Cl)c5)cc34)CC2)CC1` [Example 349, {6-(3-Chloro-5-fluoro-4-hydroxyphenyl)-4-[4-(4-methylpiperazin-1-yl)piperidin-1-yl]quinolin-3-yl}(cyclopropyl)methanone], the 50% inhibitory concentration (IC50) stood at 0.49 µM with T47D cells (setting [2]); 0.98 µM in the test on A549 cells (setting [2]); 0.0046 µM on MELK; 5.8 µM in the test with HT-1197 cells (setting [3]); 0.91 µM in the test with BT-549 cells.

`COc1cc(-c2ccc3ncc(C(=O)C4CC4)c(NC4CCN(C)CC4)c3c2)cc(Cl)c1O` [Example 249]: the IC50 in the test on T47D cells (setting [2]) is 0.83 µM; with A549 cells (setting [2]), 0.3 µM; on MELK, 0.0079 µM; with HT-1197 cells (setting [3]), 4.4 µM; with BT-549 cells, 1.3 µM.

With `CCN(CC)[C@H]1CC[C@H](Nc2c(C(=O)C3CC3)cnc3ccc(-c4cc(Cl)c(O)c(OC)c4)cc23)CC1` [Example 314, {6-(3-Chloro-4-hydroxy-5-methoxyphenyl)-4-[trans-4-(diethylamino)cyclohexylamino]quinolin-3-yl}(cyclopropyl)methanone], the IC50 amounted to 0.16 µM with T47D cells (setting [2]); 0.22 µM with A549 cells (setting [2]); 0.0031 µM at MELK; 4.3 µM in the test on HT-1197 cells (setting [3]); 0.73 µM with BT-549 cells.

For `N[C@H]1CC[C@H](Nc2c(C(=O)C3CC3)cnc3ccc(-c4ccc(O)cc4)cc23)CC1` [Example 55, {4-[trans-4-Aminocyclohexylamino]-6-(4-hydroxyphenyl)quinolin-3-yl}(cyclopropyl)methanone], the half-maximal inhibitory concentration (IC50) was determined as 0.2 µM in the test with T47D cells (setting [2]); 0.48 µM with A549 cells (setting [2]); 0.021 µM at MELK; 2 µM with HT-1197 cells (setting [3]); 0.43 µM with BT-549 cells.

`CC(=O)c1cnc2ccc(-c3cc(Cl)c(O)c(Cl)c3)cc2c1N[C@H]1CC[C@H](N)CC1` [Example 256, 1-{4-[trans-4-Aminocyclohexylamino]-6-(3,5-dichloro-4-hydroxyphenyl)quinolin-3-yl}ethanone]: the IC50 in the test with T47D cells (setting [2]) amounted to 0.064 µM; in the test with A549 cells (setting [2]), 0.44 µM; on MELK it was 0.0041 µM; with HT-1197 cells (setting [3]), 100 µM; with BT-549 cells, 0.31 µM.

As to `CCN(CC)C1CCC(Nc2c(C(C)=O)cnc3ccc(-c4cc(Cl)c(O)c(OC)c4)cc23)CC1` (stereo not drawn) [Example 303, 1-{6-(3-Chloro-4-hydroxy-5-methoxyphenyl)-4-[4-(diethylamino)cyclohexylamino]quinolin-3-yl}ethanone], the IC50 in the test on T47D cells (setting [2]) is 0.39 µM; in the test on A549 cells (setting [2]), 0.35 µM; at MELK, 0.0061 µM; with HT-1197 cells (setting [3]), 7.4 µM; with BT-549 cells, 1.7 µM.

Take `N#Cc1ncc(-c2ccc3ncc(C(=O)C4CC4)c(N[C@H]4CC[C@H](N)CC4)c3c2)cn1` [Example 96, 5-{4-[trans-4-Aminocyclohexylamino]-3-(cyclopropanecarbonyl)quinolin-6-yl}pyrimidine-2-carbonitrile]: the IC50 in the test on T47D cells (setting [2]) stood at 0.29 µM; in the test with A549 cells (setting [2]), 1.3 µM; at MELK, 0.0024 µM; in the test on HT-1197 cells (setting [3]) it was 1.5 µM; with BT-549 cells, 0.93 µM.

As to `COc1cc(-c2ccc3ncc(C(=O)C4CC4)c(N4CCC5(CCNC5)CC4)c3c2)cc(Cl)c1O` [Example 155, [6-(3-Chloro-4-hydroxy-5-methoxyphenyl)-4-(2,8-diazaspiro[4,5]decan-8-yl)quinolin-3-yl](cyclopropyl)methanone], the IC50 amounted to 0.43 µM in the test with T47D cells (setting [2]); 0.68 µM in the test with A549 cells (setting [2]); 0.004 µM on MELK; 2.4 µM in the test on HT-1197 cells (setting [3]); 0.79 µM in the test with BT-549 cells.

For the compound `COc1cc(-c2ccc3ncc(C(=O)C4CC4)c(NCC4CCN(C)CC4)c3c2)cc(Cl)c1O` [Example 201, {6-(3-Chloro-4-hydroxy-5-methoxyphenyl)-4-[(1-methylpiperidin-4-yl)methylamino]quinolin-3-yl}(cyclopropyl)methanone], the IC50 in the test with T47D cells (setting [2]) came out at 0.76 µM; in the test with A549 cells (setting [2]), 0.73 µM; at MELK, 0.0034 µM; in the test with HT-1197 cells (setting [3]), 7.4 µM; in the test with BT-549 cells it was 1.8 µM.

For the compound `CN(C)[C@H]1CC[C@H](Nc2c(C(=O)C3CC3)cnc3cc(F)c(-c4cc(F)c(O)c(Cl)c4)cc23)CC1` [Example 295, {6-(3-Chloro-5-fluoro-4-hydroxyphenyl)-4-[trans-4-(dimethylamino)cyclohexylamino]-7-fluoroquinolin-3-yl}(cyclopropyl)methanone], the IC50 with T47D cells (setting [2]) worked out at 0.42 µM; in the test on A549 cells (setting [2]), 0.31 µM; at MELK, 0.027 µM; in the test on HT-1197 cells (setting [3]) it was 1.2 µM; in the test on BT-549 cells it was 0.39 µM.

Regarding `COc1cc(-c2ccc3ncc(C(=O)C4CC4)c(N4CCC(C(C)N(C)C)CC4)c3c2)ccc1O` (stereo not drawn) [Example 187, Cyclopropyl(4-{4-[1-(dimethylamino)ethyl]piperidin-1-yl}-6-(4-hydroxy-3-methoxyphenyl)quinolin-3-yl)methanone], the concentration for half-maximal inhibition (IC50) in the test on T47D cells (setting [2]) came out at 0.44 µM; with A549 cells (setting [2]), 0.65 µM; on MELK, 0.0034 µM; with HT-1197 cells (setting [3]) it was 2.2 µM; in the test with BT-549 cells it was 2 µM.

Take `CC(C1CCN(c2c(C(=O)C3CC3)cnc3ccc(-c4cc(F)c(O)c(F)c4)cc23)CC1)N(C)C` (stereo not drawn) [Example 181, Cyclopropyl[6-(3,5-difluoro-4-hydroxyphenyl)-4-{4-[1-(dimethylamino)ethyl]piperidin-1-yl}quinolin-3-yl]methanone]: the half-inhibitory concentration (IC50) in the test on T47D cells (setting [2]) is 0.47 µM; in the test with A549 cells (setting [2]) it was 0.7 µM; at MELK it was 0.011 µM; in the test with HT-1197 cells (setting [3]), 1.1 µM; with BT-549 cells, 0.73 µM.

Consider `COc1cc(-c2ccc3ncc(C(=O)C4CC4)c(N4CCC(CN5CCOCC5)CC4)c3c2)cc(Cl)c1O` [Example 334, {6-(3-Chloro-4-hydroxy-5-methoxyphenyl)-4-[4-(morpholinomethyl)piperidin-1-yl]quinolin-3-yl}(cyclopropyl)methanone], for which the IC50 in the test with T47D cells (setting [2]) worked out at 0.55 µM; with A549 cells (setting [2]), 0.41 µM; at MELK it was 0.0081 µM; with HT-1197 cells (setting [3]), 4.8 µM; in the test with BT-549 cells, 0.77 µM.
